Blank lines part the entries; values can stand above or below the compound they belong to.
What was measured:
[1] = Photophysical properties of selected compounds in DMSO; format: physicochemical
[2] = Relative rates of photooxidation of the linker in CMP-L-CA4 with ROS quenchers; format: physicochemical; conditions: 1.2 μmol each in CDCl3, 690 nm, 10 mW/cm^2
Experimental: The reaction mixture was irradiated by using diode laser (690 nm, 10 mW/cm^2). The oxidation of the olefin with SO was monitored every 5 min by the decrease of the olefinic peaks of the aminoacrylate in ^1H-NMR

[3] = Oxidation of aminoacrylate linker model compound with ROS quenchers; format: physicochemical; conditions: model compound 9 mM, CMP-OMe 9 mM, quencher 9 mM, 690 nm, 100 mW/cm^2
Experimental: To determine the effect of specific ROS quenchers on the oxidation of the aminoacrylate linker, the rate of oxidation of aminoacrylate linker was determined by ^1H-NMR using the vinyl proton of the aminoacrylate linker (FIG. 20). A solution of (E)-N-phenyl-3-(piperidin-1-yl)acrylamide (9 mM), a photosensitizer (CMP-OMe, 9 mM), a ROS quencher (0 or 9 mM) was in a CDCl3 solvent in a NMR tube was exposed to the irradiation (690 nm diode laser, 100 mW/cm^2) and ^1H-NMR was taken every 5 min. The ROS quencher was either a singlet oxygen quencher (DABCO or β-Carotene) or a superoxide quencher (1,4-Benzoquinone) and the photosensitizer was CMP-OMe (5-(4-methoxyphenyl)-10,15,20-triphenyl-21,23-dithiaporphyrin).

[4] = 1H-NMR of drugs and model linker compound with CMP-OMe before and after irradiation; format: physicochemical; conditions: 1H-NMR
Description: The cleavage of aminoacrylate linkers after irradiation was supported by the increased coumarin fluorescence of 9 by irradiation (FIGS. 14-21). The unique peak of each compound was integrated against the peak of CMP-OMe (four protons of CMP-OMe at 9.7 ppm, FIG. 14), which was known to be inert to singlet oxygen oxidation. […] However, we observed 77% decrease of the proton peak of the aminoacrylate linker after the irradiation (FIG. 21). […] PD 9 had negligible coumarin emission compared to that of free coumarin at the equimolar concentration. In the presence of 10 μM of 9, MCF-7 cells were incubated for 24 h to activate dPS. Then, the samples were irradiated by visible light (540±10 nm, 8 mW/cm^2, 30 min). […] The released free coumarin was also detected and quantified by HPLC based on the standard curve of free coumarin. As such, almost 99% of 9 released coumarin while only 64% of dPS of 9 were activated when irradiated.

MCF-7 cells [5] = experiment: Phototoxicity, MTT (Example 5); format: cell-based
Experimental: On the other hand, only a photodynamic effect could damage cells by [CMP-NCL-CA4+hv].
MCF-7 cells were maintained in minimum essential medium (α-MEM) supplemented with 10% bovine growth serum, 2 mM L-glutamine, 50 units/mL penicillin G, 50 μg/mL streptomycin and 1.0 μg/mL fungizone. MCF-7 cells (5,000 cells/well) were seeded on 96-well plates in the medium and then incubated for 24 h at 37° C. in 5% CO2. Stock solutions (2 mM) were prepared in DMSO. The stocks were further diluted with medium to get necessary final concentrations. The diluted solution (10 μL) was then added to each well (190 μL). The plates were incubated for 24 h and then removed from the incubator. For the phototoxicity study: The plate without a cover was placed on an orbital shaker (Lab-line, Barnstead International) and irradiated by using a diode laser (690 nm, 5.6 mW/cm^2) for 30 min. To ensure uniformity of the light during the irradiation, each plate was shaken gently on an orbital shaker. […] Cell viability was determined after 3 days by using the MTT assay. […] Then, the MTT solution was removed and the cells were dissolved in 200 μL of DMSO and the absorbance within each well was measured at 570 nm with background subtraction at 650 nm. The cell viability was then quantified by measuring the absorbance of the treated wells compared to that of the untreated wells (controls) and expressed as a percentage.

MCF-7 cells [6] = experiment: Dark toxicity, MTT (Example 5); format: cell-based
Experimental: It seemed that the bulky groups, CMP-L and CMP-NCL, reduced the cytotoxic activity of CA4, presumably through the interference of its binding to tubulin as estimated by the modeling study.
MCF-7 cells were maintained in minimum essential medium (α-MEM) supplemented with 10% bovine growth serum, 2 mM L-glutamine, 50 units/mL penicillin G, 50 μg/mL streptomycin and 1.0 μg/mL fungizone. MCF-7 cells (5,000 cells/well) were seeded on 96-well plates in the medium and then incubated for 24 h at 37° C. in 5% CO2. Stock solutions (2 mM) were prepared in DMSO. The stocks were further diluted with medium to get necessary final concentrations. The diluted solution (10 μL) was then added to each well (190 μL). The plates were incubated for 24 h and then removed from the incubator. For the phototoxicity study: The plate without a cover was placed on an orbital shaker (Lab-line, Barnstead International) and irradiated by using a diode laser (690 nm, 5.6 mW/cm^2) for 30 min. To ensure uniformity of the light during the irradiation, each plate was shaken gently on an orbital shaker. For the dark toxicity study: Plates were kept in the dark for 30 min, and then returned to the incubator. Cell viability was determined after 3 days by using the MTT assay. Briefly, a 10 μL solution of MTT (10 mg in 1 mL PBS buffer) was added to each well and the plate was incubated for 4 h. Then, the MTT solution was removed and the cells were dissolved in 200 μL of DMSO and the absorbance within each well was measured at 570 nm with background subtraction at 650 nm. The cell viability was then quantified by measuring the absorbance of the treated wells compared to that of the untreated wells (controls) and expressed as a percentage.

tubulin = molecular target: T1, tubulin (Sus scrofa, UniProt P02554); experiment: Fluorescence-based tubulin polymerization assay; format: biochemical; conditions: 3 μM
T1 construct: purchased Cytoskeleton, Inc. BK011P
Experimental: Paclitaxel and CA4 were used as positive control drugs (a polymerization enhancer and an inhibitor, respectively) in addition to the negative control group (FIG. 32).
The fluorescence-based tubulin polymerization was determined by using a kit supplied by Cytoskeleton, Inc. (cat #=BK011P). Its basic principle is that the fluorescence reporter increases as it is incorporated into microtubules during the course of polymerization. The assay was performed following the experimental procedure as described in version 2.1 of the tubulin polymerization assay kit manual. Briefly, the test drug (final concentration=3 μM) was added to a mixture of tubulin and GTP in a buffer solution, and the reaction mixture was incubated at 37° C. Fluorescence was monitored (excitation=360 nm and emission=450 nm) by using a fluorescence plate reader (SpectraMax Gemini EM, Molecular device). Paclitaxel and CA4 were included in the assay as positive controls in addition to the negative control (vehicle only).

[7] = literature (ref 88); cited from earlier work
MCF-7 cells [8] = experiment: Dark toxicity, MTT cell viability (Example 4); format: cell-based; conditions: MCF-7, 96 hr, no irradiation
Experimental: MCF-7 cells (5,000 cells/well) were seeded in 96 well plates. After the plates were incubated for 24 hr, the culture medium was aspirated and the cells were washed with cold PBS (100 μL) once. Then, prodrug in the 200 μL culture media was added to cells. The final concentrations ranging from 1 nM to 1 μM were used to perform concentration dependent cell viability and 25 nM prodrug was used to perform time dependent drug release study. After 96 hr incubation, the cell viability was determined by MTT assay detailed below. The experiments were performed in triplicate. IC50 values were calculated with GraphPad Prism 5.
Cell viability was assessed by MIT assay.^89 In brief, after thoroughly washing the cells 2× with PBS buffer, the cells were treated with 200 μL 0.5 mg/mL MIT (3-(4,5-dimethylthiazol-2-yl)-2,5-diphenyltetrazolium bromide, a yellow tetrazole). Subsequently, the cells were incubated at 37° C. under a humidified atmosphere of 5% CO2 for 4 h. After 4 h of incubation, the solution from each well was taken out, and washed with PBS one time and added 100 μL DMSO. The plates were shaken at room temperature for 10 min and read immediately at 570 nm on a microplate reader (Spectra max, Molecular devices). Cell viability (%) was expressed as a ratio of treated cells to control cells.

[9] = literature (ref 79); cited from earlier work
[10] = Photooxygenation of model compounds 2-16 with dithiaporphyrin photosensitizer, 690 nm diode laser (Example 3); format: physicochemical
Experimental: To evaluate the rate of oxidation by singlet oxygen, the model compounds 2-7 were irradiated by a diode laser (690 nm, 200 mW/cm2, 25 min) in the presence of the photosensitizer 5-(4-methoxyphenyl)-10,15,20-[…]-21,23-dithiaporphyrin (FIG. 11 and Table 5). The reaction of olefins with singlet oxygen was monitored by the decrease of olefinic proton peaks in the ^1H-NMR spectra. (Z)-1,2-Bis(phenylthio)ethylene was used as positive control. […] Oxidation of only the nitrogen analogues is probably due to electron donation from the nitrogen to the carbonyl group making the olefinic bond electron rich for attack by singlet oxygen.
In a NMR tube, an olefin (0.0048 mmol) was dissolved in CDCl3 (0.5 mL). The photosensitizer compound (32), 3 mg, 0.0048 mmol] was added to this solution. […] The reaction of olefins with singlet oxygen was monitored by the decrease of olefinic peaks in ^1H-NMR spectra. In the case of compound 14, 15 and 16 no photosensitizer was added.

[11] = Photooxidation of 1,2-diheteroatom-substituted olefins with CMP-OMe, 690 nm diode laser (Example 2); format: physicochemical
Experimental: In a NMR tube, an olefin (0.0048 mmol) was dissolved in CDCl3 (0.5 mL). The photosensitizer [5-(4-methoxyphenyl)-10,15,20-triphenyl-21-23-dithiaporphyrin, CMP-OMe, 3 mg, 0.0048 mmol] was added to this solution. Then, the reaction mixture was irradiated for 15 min using a diode laser (690 nm, 200 mW/cm^2). The reaction of olefins with singlet oxygen was monitored by the decrease of olefinic peaks in ^1H-NMR spectra. The formation of the photooxidation products were also determined by appearance of the formate (or thioformate) peaks in ^1H-NMR spectra.
To examine the oxidation rate of these electron-rich alkenes with singlet oxygen (Scheme 4), compounds 6, 8, and 10 were irradiated in the presence of 5-(4-methoxyphenyl)-10,15,20-triphenyl-21,23-dithiaporphyrin as a photosensitizer.^53 All experiments were performed following the standard procedure previously set with a slight modification by using a 690 nm diode laser source (200 mW/cm^2).^35 In the experiments, the amount of sensitizer used was not catalytic. Here, the ratio of olefin and photosensitizer used was 1:1 to mimic the situation of prodrug where the olefinic linker could be used for connecting one drug molecule to one photosensitizer molecule.^7,35 The reaction solutions were irradiated for 15 min and monitored every 5 min using olefinic peaks in ^1H-NMR each time to monitor the progress of the reactions. Upon the oxidation by singlet oxygen, the olefinic peaks decreased.

[12] = 0 min, 690 nm diode laser, 200 mW/cm^2, CDCl3, no added photosensitizer for 14, 15, 16

T1 sequence (P02554 whole entry): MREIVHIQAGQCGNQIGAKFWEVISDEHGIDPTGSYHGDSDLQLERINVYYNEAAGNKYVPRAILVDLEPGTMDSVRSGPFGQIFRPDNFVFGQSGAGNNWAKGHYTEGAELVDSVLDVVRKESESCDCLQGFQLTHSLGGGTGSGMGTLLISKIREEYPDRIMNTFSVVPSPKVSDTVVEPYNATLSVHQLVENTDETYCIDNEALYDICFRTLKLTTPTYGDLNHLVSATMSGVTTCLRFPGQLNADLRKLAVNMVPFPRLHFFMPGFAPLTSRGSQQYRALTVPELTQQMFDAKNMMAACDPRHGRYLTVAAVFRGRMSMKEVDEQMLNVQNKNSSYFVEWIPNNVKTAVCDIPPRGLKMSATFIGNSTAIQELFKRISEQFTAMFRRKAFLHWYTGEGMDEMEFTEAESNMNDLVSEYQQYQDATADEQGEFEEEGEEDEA
T1 sequence (P02550 whole entry partner): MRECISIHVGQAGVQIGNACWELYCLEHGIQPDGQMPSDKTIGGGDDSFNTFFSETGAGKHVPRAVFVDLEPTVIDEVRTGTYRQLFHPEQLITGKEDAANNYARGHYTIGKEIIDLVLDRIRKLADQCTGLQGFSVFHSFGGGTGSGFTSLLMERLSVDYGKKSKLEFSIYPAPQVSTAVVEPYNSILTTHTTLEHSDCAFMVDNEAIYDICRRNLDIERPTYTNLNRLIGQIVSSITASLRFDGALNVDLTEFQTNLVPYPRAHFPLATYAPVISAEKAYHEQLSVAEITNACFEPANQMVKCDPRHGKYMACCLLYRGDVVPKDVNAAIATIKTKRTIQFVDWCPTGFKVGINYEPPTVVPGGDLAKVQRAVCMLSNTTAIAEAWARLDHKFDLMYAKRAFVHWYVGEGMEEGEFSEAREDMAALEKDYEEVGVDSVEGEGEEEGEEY

Extinction Coefficient [1]: 80000 M⁻¹ cm⁻¹
FQY (φ), fluorescence quantum yield [1]: 0.90
emax (emission maximum) [1]: 525 nm
λmax (absorption maximum) [1]: 462 nm
Compound: 5-(6) carboxy-fluorescein

Oxidation under the irradiation condition [4]: not oxidized at all
Extinction Coefficient [1]: 15800 M⁻¹ cm⁻¹
FQY (φ), fluorescence quantum yield [1]: 0.14
emax (emission maximum) [1]: 378 nm
λmax (absorption maximum) [1]: 325 nm
Compound: Cc1cc(=O)oc2cc(O)ccc12 [7-hydroxy-4-methyl-coumarin]

Inhibition of tubulin polymerization (tubulin; 1 h incubation at 37° C.): 9%
Compound: COc1ccc(/C=C\c2cc(OC)c(OC)c(OC)c2)cc1OCCCN1CCN(C(=O)COc2ccc(-c3c4nc(c(-c5ccccc5)c5ccc(s5)c(-c5ccccc5)c5nc(c(-c6ccccc6)c6ccc3s6)C=C5)C=C4)cc2)CC1 [CMP-NCL-CA4]
Increase of cytotoxicity after irradiation (MCF-7 cells [5]; IC50 dark vs irradiated): 1.7 fold
IC50 (MCF-7 cells [5]; MCF-7, 690 nm, 5.6 mW/cm^2, 30 min, read-out: IC50 after irradiation (phototoxicity)): 1060 nM
IC50 (MCF-7 cells [6]; MCF-7, dark, 3 days, read-out: IC50D (dark toxicity)): 1800 nM
Reduction of cytotoxicity relative to CA4 (MCF-7 cells [6]; dark): 200 fold

Oxidation under the irradiation condition [4]: not oxidized at all
Compound: CCc1c2c(nc3ccc(O)cc13)-c1cc3c(c(=O)n1C2)COC(=O)[C@]3(O)CC [SN-38]
IC50 (MCF-7 cells [8]): 170 nM
Times more active than irinotecan [9]: at least 1000 times

Remaining olefins (%) ([11]; 0 min, CMP-OMe, 690 nm, 200 mW/cm^2, CDCl3): 100%
Remaining olefins (%) ([11]; 5 min): 38%
Remaining olefins (%) ([11]; 10 min): 11%
Remaining olefins (%) ([11]; 15 min): 0%
Compound: C(=C/Sc1ccccc1)/Sc1ccccc1 [control, (Z)-1,2-Bis(phenylthio) ethene]
Percentile of remaining compound [10, 12]: 100
Percentile of remaining compound ([10]; 5 min): 70
Percentile of remaining compound ([10]; 10 min): 59
Percentile of remaining compound ([10]; 15 min): 41
Percentile of remaining compound ([10]; 20 min): 23
Percentile of remaining compound ([10]; 25 min): 13
Decrease of olefinic proton peaks (photo-oxidation) ([10]; 25 min of irradiation): 87%

Pattern of kinetic trace of tubulin polymerization (tubulin): enhancer
Compound: CC(=O)O[C@H]1C(=O)[C@@]2(C)[C@H]([C@H](OC(=O)c3ccccc3)[C@]3(O)C[C@H](OC(=O)[C@H](O)[C@@H](NC(=O)c4ccccc4)c4ccccc4)C(C)=C1C3(C)C)[C@]1(OC(C)=O)CO[C@@H]1C[C@@H]2O [paclitaxel]

More lines, now with the values behind:

Compound: O=C1C=CC(=O)C=C1 [1,4-benzoquinone]
Effect of ROS quencher on oxidation of aminoacrylate linker of CMP-L-CA4 [2]: did not have any effect on the oxidation of the aminoacrylate linker
Effect of ROS quencher on oxidation of the aminoacrylate linker [3]: did not make any delay of the oxidation of the linker

Compound: C1CN2CCN1CC2 [DABCO, 1,4-diazabicyclo[2.2.2]octane]
Effect of ROS quencher on oxidation of aminoacrylate linker of CMP-L-CA4 [2]: dramatically delayed the oxidation of aminoacrylate
Singlet oxygen quenching rate constant k [7]: 2.6e+08 M⁻¹ s⁻¹
Effect of ROS quencher on oxidation of the aminoacrylate linker [3]: effectively delayed the oxidation of the aminoacrylate linker

Compound: CC1=C(/C=C/C(C)=C/C=C/C(C)=C/C=C/C=C(C)/C=C/C=C(C)/C=C/C2=C(C)CCCC2(C)C)C(C)(C)CCC1 [β-carotene]
Effect of ROS quencher on oxidation of aminoacrylate linker of CMP-L-CA4 [2]: dramatically delayed the oxidation of aminoacrylate
Singlet oxygen quenching rate constant k [7]: 1.2e+10 M⁻¹ s⁻¹
Effect of ROS quencher on oxidation of the aminoacrylate linker [3]: effectively delayed the oxidation of the aminoacrylate linker

Compound: (E)-((13S)-13-Methyl-17-oxo-7,8,9,11,12,13,14,15,16,17-decahydro-6H cyclopenta[a] phenanthren-3-yl)3-(4-((2-phenoxy-10,15,20-triphenyl-21,23-dithiaporphyrinacetoxy)methyl) piperidin-1-yl)acrylate [Compound 16 (Example 3)]
Percentile of remaining compound [10, 12]: 100
Percentile of remaining compound ([10]; 5 min): 60
Percentile of remaining compound ([10]; 10 min): 10
Release of parent molecule after irradiation ([10]; GC-MS / SI): successfully released Estrone
Photo-oxidation ([10]; in 10 min): 90%

— patent US9839690B2, “Singlet oxygen-labile linkers and methods of production and use thereof” (The Board of Regents of the University of Oklahoma, priority 2012, dated 2017)
